{"source": "patent US20040091555A1", "about": "(priority 2003, published 2004)", "origin": "cited, not measured here", "tested_on": "hepatocellular carcinoma", "conditions": "phase II clinical trials, patients with hepatocellular carcinoma", "data": [{"smiles": "CC(=O)O[C@H]1C(=O)[C@@]2(C)[C@H]([C@H](OC(=O)c3ccccc3)[C@]3(O)C[C@H](OC(=O)[C@H](O)[C@@H](NC(=O)c4ccccc4)c4ccccc4)C(C)=C1C3(C)C)[C@]1(OC(C)=O)CO[C@@H]1C[C@@H]2O", "note": "[paclitaxel]", "values": [{"measurement": "efficacy on hepatocellular carcinoma", "value": "no significant efficacy on hepatocellular carcinoma"}]}]}
